Tests used:
Test in all cases: relative viability (nuclei count vs DMSO), 5 days (fraction); higher = more cells survive
ABC-1 = test system: ABC-1
Procedure, shortened: (§1)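 Relative viability is defined as nuclei in treated wells over nuclei in vehicle wells. Duplicate plates were run and medians reported. Lung cancer cell lines in 1536-well plates were dosed by pin tool one day after seeding, with one drug or with a fixed anchor-drug dose plus five library-drug doses (not always all listed) in √10 steps, and nuclei were counted after 5 days.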

ChaGo-K-1 = test system: ChaGo-K-1
Procedure, shortened: as §1

HCC-366 = test system: HCC-366
Procedure, shortened: as §1

HCC-78 = test system: HCC-78
Procedure, shortened: as §1

LC-2-ad = test system: LC-2-ad
Procedure, shortened: as §1

LOU-NH91 = test system: LOU-NH91
Procedure, shortened: as §1

LU99A = test system: LU99A
Procedure, shortened: as §1

NCI-H1395 = test system: NCI-H1395
Procedure, shortened: as §1

NCI-H1651 = test system: NCI-H1651
Procedure, shortened: as §1

NCI-H1755 = test system: NCI-H1755
Procedure, shortened: as §1

NCI-H1793 = test system: NCI-H1793
Procedure, shortened: as §1

NCI-H1944 = test system: NCI-H1944
Procedure, shortened: as §1

NCI-H2087 = test system: NCI-H2087
Procedure, shortened: as §1

NCI-H2170 = test system: NCI-H2170
Procedure, shortened: as §1

NCI-H2405 = test system: NCI-H2405
Procedure, shortened: as §1

NCI-H3122 = test system: NCI-H3122
Procedure, shortened: as §1

NCI-H460 = test system: NCI-H460
Procedure, shortened: as §1

PC-3 [JPC-3] = test system: PC-3 [JPC-3]
Procedure, shortened: as §1

RERF-LC-KJ = test system: RERF-LC-KJ
Procedure, shortened: as §1

UMC-11 = test system: UMC-11
Procedure, shortened: as §1

Compound `Cc1sc2c(c1C)C(c1ccc(Cl)cc1)=N[C@@H](CC(=O)OC(C)(C)C)c1nnc(C)n1-2` [JQ1] + Nc1ncn([C@H]2C[C@H](O)[C@@H](CO)O2)c(=O)n1 [Decitabine] (partner 2 µM) has a relative viability (ABC-1; first compound 0.04 µM) of 1.19, a relative viability (ABC-1; first compound 0.1265 µM) of 0.889 and a relative viability (ABC-1; first compound 0.4 µM) of 0.691. For the same compound, the relative viability (ABC-1; first compound 1.265 µM) was 0.837, the relative viability (ABC-1; first compound 4 µM) was 0.582 and the relative viability (ChaGo-K-1; first compound 0.04 µM) was 0.552. For the same compound, the relative viability (ChaGo-K-1; first compound 0.1265 µM) was 0.472, the relative viability (ChaGo-K-1; first compound 0.4 µM) was 0.539 and the relative viability (ChaGo-K-1; first compound 1.265 µM) was 0.392. For the same compound, the relative viability (ChaGo-K-1; first compound 4 µM) was 0.36, the relative viability (HCC-366; first compound 0.04 µM) was 0.309 and the relative viability (HCC-366; first compound 0.4 µM) was 0.35. For the same compound, the relative viability (HCC-366; first compound 1.265 µM) was 0.36, the relative viability (HCC-366; first compound 4 µM) was 0.293 and the relative viability (HCC-78; first compound 0.04 µM) was 0.604. For the same compound, the relative viability (HCC-78; first compound 0.1265 µM) was 0.529, the relative viability (HCC-78; first compound 0.4 µM) was 0.691 and the relative viability (HCC-78; first compound 1.265 µM) was 0.563. The relative viability (HCC-78; first compound 4 µM) was 0.588, the relative viability (LC-2-ad; first compound 0.04 µM) was 0.754 and the relative viability (LC-2-ad; first compound 0.1265 µM) was 0.621. It also gave a relative viability (LC-2-ad; first compound 0.4 µM) of 0.708, a relative viability (LC-2-ad; first compound 1.265 µM) of 0.574 and a relative viability (LC-2-ad; first compound 4 µM) of 0.3. The relative viability (LOU-NH91; first compound 0.04 µM) was 0.826, the relative viability (LOU-NH91; first compound 0.1265 µM) was 0.725 and the relative viability (LOU-NH91; first compound 0.4 µM) was 0.554. For the same compound, the relative viability (LOU-NH91; first compound 1.265 µM) was 0.491, the relative viability (LOU-NH91; first compound 4 µM) was 0.521 and the relative viability (LU99A; first compound 0.04 µM) was 0.932. It also gave a relative viability (LU99A; first compound 0.4 µM) of 0.623, a relative viability (LU99A; first compound 1.265 µM) of 0.293 and a relative viability (LU99A; first compound 4 µM) of 0.254. The relative viability (NCI-H1395; first compound 0.04 µM) was 0.683, the relative viability (NCI-H1395; first compound 0.1265 µM) was 0.701 and the relative viability (NCI-H1395; first compound 0.4 µM) was 0.71. It also gave a relative viability (NCI-H1395; first compound 1.265 µM) of 0.587, a relative viability (NCI-H1395; first compound 4 µM) of 0.457 and a relative viability (NCI-H1651; first compound 0.04 µM) of 0.651. For the same compound, the relative viability (NCI-H1651; first compound 0.1265 µM) was 0.487, the relative viability (NCI-H1651; first compound 0.4 µM) was 0.442 and the relative viability (NCI-H1651; first compound 1.265 µM) was 0.524. For the same compound, the relative viability (NCI-H1651; first compound 4 µM) was 0.411, the relative viability (NCI-H1755; first compound 0.04 µM) was 0.744 and the relative viability (NCI-H1755; first compound 0.1265 µM) was 0.738. The relative viability (NCI-H1755; first compound 0.4 µM) was 0.747, the relative viability (NCI-H1755; first compound 1.265 µM) was 0.731 and the relative viability (NCI-H1755; first compound 4 µM) was 0.719. The relative viability (NCI-H1793; first compound 0.04 µM) was 0.557, the relative viability (NCI-H1793; first compound 0.1265 µM) was 0.433 and the relative viability (NCI-H1793; first compound 0.4 µM) was 0.468. It also gave a relative viability (NCI-H1793; first compound 1.265 µM) of 0.418, a relative viability (NCI-H1793; first compound 4 µM) of 0.484 and a relative viability (NCI-H1944; first compound 0.04 µM) of 0.438. It also gave a relative viability (NCI-H1944; first compound 0.1265 µM) of 0.405, a relative viability (NCI-H1944; first compound 0.4 µM) of 0.409 and a relative viability (NCI-H1944; first compound 1.265 µM) of 0.335. For the same compound, the relative viability (NCI-H1944; first compound 4 µM) was 0.313, the relative viability (NCI-H2087; first compound 0.04 µM) was 0.316 and the relative viability (NCI-H2087; first compound 0.1265 µM) was 0.251. The relative viability (NCI-H2087; first compound 0.4 µM) was 0.262, the relative viability (NCI-H2087; first compound 1.265 µM) was 0.151 and the relative viability (NCI-H2087; first compound 4 µM) was 0.18. It also gave a relative viability (NCI-H2170; first compound 0.04 µM) of 0.415, a relative viability (NCI-H2170; first compound 0.1265 µM) of 0.441 and a relative viability (NCI-H2170; first compound 0.4 µM) of 0.473. The relative viability (NCI-H2170; first compound 1.265 µM) was 0.345, the relative viability (NCI-H2170; first compound 4 µM) was 0.255 and the relative viability (NCI-H2405; first compound 0.04 µM) was 0.81. For the same compound, the relative viability (NCI-H2405; first compound 0.4 µM) was 0.75, the relative viability (NCI-H2405; first compound 1.265 µM) was 0.577 and the relative viability (NCI-H2405; first compound 4 µM) was 0.471. The relative viability (NCI-H3122; first compound 0.04 µM) was 0.489, the relative viability (NCI-H3122; first compound 0.1265 µM) was 0.395 and the relative viability (NCI-H3122; first compound 0.4 µM) was 0.517. For the same compound, the relative viability (NCI-H3122; first compound 1.265 µM) was 0.343, the relative viability (NCI-H3122; first compound 4 µM) was 0.38 and the relative viability (NCI-H460; first compound 0.04 µM) was 0.488. The relative viability (NCI-H460; first compound 0.1265 µM) was 0.344, the relative viability (NCI-H460; first compound 0.4 µM) was 0.296 and the relative viability (NCI-H460; first compound 1.265 µM) was 0.165. It also gave a relative viability (NCI-H460; first compound 4 µM) of 0.226, a relative viability (PC-3 [JPC-3]; first compound 0.04 µM) of 0.864 and a relative viability (PC-3 [JPC-3]; first compound 0.1265 µM) of 0.796. For the same compound, the relative viability (PC-3 [JPC-3]; first compound 0.4 µM) was 0.778, the relative viability (PC-3 [JPC-3]; first compound 1.265 µM) was 0.509 and the relative viability (PC-3 [JPC-3]; first compound 4 µM) was 0.561. It also gave a relative viability (RERF-LC-KJ; first compound 0.04 µM) of 0.648, a relative viability (RERF-LC-KJ; first compound 0.1265 µM) of 0.532 and a relative viability (RERF-LC-KJ; first compound 0.4 µM) of 0.56. For the same compound, the relative viability (RERF-LC-KJ; first compound 1.265 µM) was 0.333, the relative viability (RERF-LC-KJ; first compound 4 µM) was 0.235 and the relative viability (UMC-11; first compound 0.04 µM) was 0.514. For the same compound, the relative viability (UMC-11; first compound 0.1265 µM) was 0.468, the relative viability (UMC-11; first compound 0.4 µM) was 0.328 and the relative viability (UMC-11; first compound 1.265 µM) was 0.294. The relative viability (UMC-11; first compound 4 µM) was 0.309.
